Results: ChEMBL document CHEMBL1129206, “Probing the specificity of the S1 binding site of M222 mutants of subtilisin B. lentus with boronic acid inhibitors” (Bioorg Med Chem Lett, 1996)

Assays:
Set-up in all cases: species or system Lederbergia lenta
[1] = target: Subtilisin BL (Bacillus lentus, UniProt P29599, M222C)
[2] = target: Subtilisin BL (Bacillus lentus, UniProt P29599, M222S)
[3] = target: T1, Subtilisin BL (Bacillus lentus, UniProt P29599); test: Competitive inhibition of Subtilisin BL wild type enzyme from Bacillus lentus
T1 sequence (P29599 whole entry): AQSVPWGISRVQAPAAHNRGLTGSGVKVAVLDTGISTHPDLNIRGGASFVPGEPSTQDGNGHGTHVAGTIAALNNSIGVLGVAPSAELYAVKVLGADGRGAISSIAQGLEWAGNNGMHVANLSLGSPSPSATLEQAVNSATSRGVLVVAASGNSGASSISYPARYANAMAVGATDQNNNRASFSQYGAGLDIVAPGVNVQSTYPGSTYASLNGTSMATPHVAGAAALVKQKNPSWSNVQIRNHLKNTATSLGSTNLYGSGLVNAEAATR

Compound	Ki [1]	Ki [2]	Ki [3]
OB(O)c1cccc(-c2ccccc2)c1	31 µM	69 µM	327 µM
OB(O)c1ccc(Cl)cc1Cl	18 µM	8 µM	9.2 µM
Nc1cccc(B(O)O)c1	204 µM	73 µM	150 µM
OB(O)c1ccc(Br)cc1	23 µM	10 µM	23 µM
COc1ccc(B(O)O)cc1	757 µM	310 µM	577 µM
OB(O)CCc1ccc(Cl)cc1	233 µM	110 µM	325 µM
OB(O)CCc1ccc2ccccc2c1	> 1000 µM	> 1000 µM	1580 µM
COc1ccc(CCB(O)O)cc1	314 µM	219 µM	986 µM
OB(O)c1ccccc1 [PHENYLBORONIC ACID]	155 µM	96 µM	141 µM
